Consider seven molecules from EP0147498A2, “Method of testing chemical and biological substances” (Thorn, Werner Prof. Dr., priority 1983, dated 1985).

The subject of one series is Magenschleimhaut. Nature of the series: Plasma polyp (PP) formation at the gastric mucosa after application by stomach tube, PP isolated by reverse centrifugation and counted by phase-contrast microscopy. The following applies: for Anzahl der PP pro 1 g Rattenmagen: stomach tube, about 20-30 min. An excerpt: Die PP-Bildung, deren Konzentration und Auszählung wurden an Gruppen zu je 5 Ratten von 140 bis 160 g Körpergewicht, im Mittel 150 g, kontrolliert und die Anzahl der PP auf 1 g Magen (Leergewicht) umgerechnet. Die Tiere waren vor dem Versuch 15 bis 17 Stunden nahrungsfrei. Die Applikation der Testsubstanzen, die gelöst sind in Krebs-Ringer-Lösung (KRL) oder Aq.bidest, erfolgte per Schlundsonde. Die verabreichte Lösung besitzt einen pH-Wert von 7,0 bis 7,2. Die Verweildauer des applizierten Volumens hängt zum Teil ab von den Eigenschaften der Testsubstanz. […] Die Verweildauer der Testsubstanz bis zur Entnahme der Mägen einer Gruppe betrug etwa 20 bis maximal 30 min. Dabei werden dosisabhängig die abgeschnürten PP erfaßt.
Es wurden 5 Tierversuche - zu einer Serie zusammengefaßt - durchgeführt innerhalb von 40 min, wobei die Mägen wie folgt aufgearbeitet wurden: • 1. Jeder Ratte werden in nicht narkotisiertem Zustand 4,5 ml der Lösung bestehend aus der in KRL oder Aq.bidest gelösten Testsubstanz mittels einer Schlundsonde appliziert. • 2. Nach einer Einwirkzeit von etwa 15 bis 20 min werden 40 bis 45 mg Nembutal intraperitoneal appliziert, 2 bis 3 min zugewartet und dann der Magen während eines Zeitraums von etwa 5 min entnommen. • 3. Der Magen wird aufgeschnitten, der Inhalt aufgefangen, auf PP geprüft und der leere Magen in. oxygenierte KRL-Lösung mit Glucosezusatz geworfen. • 4. Alle 5 Mägen werden in der glucosehaltigen KRL dreimal hochtourig homogenisiert, das Homogenisat über ein feinmaschiges Sieb gegossen, und das Sieb wird mit 20 ml KRL nachgespült, so daß ein Endvolumen von 80 ml vorliegt. • 5. Die Volumina aus den Stufen 3 und 4 werden mit 8 ml eine: 7 %iger Lösung aus einem Copolymeren der Saccharose mit Epichlorhydrin unterschichtet und bei 2000 Umdrehungen/min im Schwingbecherrotor für 20 min zentrifugiert. • 6. Die die PP enthaltende Schicht wird erneut 60 min im Festwinkelrotor bei 13000 Umdrehungen/min (Ultrazentrifuge) zentrifugiert, der Uberstand wird verworfen und das Sediment weiterverarbeitet. • 7 Das Sediment wird einer umgekehrten Zentrifugation in der Ultrazentrifuge bei 25000 U/min für 45 min unterzogen. • 8. Die in einer Bohrung aufgefangenen PP aus der umgekehrten Zentrifugation werden in 50 µl KRL aufgenommen. • 9. Zur Auszählung der PP aus Stufe 8 bei einem Ansatz von jeweils 3 µl dient ein Phasenkontrastmikroskop. Es werden 10 Felder mit dem Rasterobjektiv ausgezählt, zum Teil unter fotografischer Kontrolle. Die in der nachfolgenden Tabelle aufgeführten Werte stammen jeweils aus drei Ansätzen; einer Probe von 5 Rattenmägen oder aus der Auswertung von 30 Feldern. • 10. Mittelwert pro Feld x Umrechnungsfaktor pro Feld x 16,6 ergibt die Zahl der PP pro Gramm Magen. Der Umrechnungsfaktor für die Feldfläche von 18 x 18 mm^2 ist 24,652.
Es wurden die in der folgenden Tabelle angegebenen Substanzen injiziert und dann die Anzahl der PP aus einer Serie von 5 Tieren als Mittelwert pro Gramm Rattenmagen oder gemittelt aus mehreren Serien mit jeweils 5 Tieren ermittelt.

For series [1], the system named is Syncytiotrophoblasten der Placenta. Particulars: cited from earlier work; for PP-Bildung in Meerschweinchenplacenten: animal experiments, Archiv für Gynäkologie 216 (1974) and 221 (1976); for Auftreten von Plasmapolypen am Syncytiotrophoblasten der Placenta: poisoning of pregnant guinea pigs, within a few minutes, already known.

As to `CC(=O)C(=O)O` [Na-Pyruvat, Natriumpyruvat], in the series with Magenschleimhaut (0,5 mmol Na-Pyruvat in 4,5 ml Aq.bidest, 1 series of 5 rats), the “Anzahl der PP pro 1 g Rattenmagen” value is listed as “etwa 220.000 PP pro 1 g Rattenmagen”. The “PP-Zahlen gegenüber der Blindprobe (4,5 ml Aq.bidest)” value with Magenschleimhaut (Na-Pyruvat alone, compared with the blank) was “keine Erhöhung”.

On to `O=C(O)O` [NaHCO3], for which, in the series with Magenschleimhaut (1,33 mmol NaHCO3 in 4,5 ml Aq.bidest, mean of 4 series of 5 rats), the “Anzahl der PP pro 1 g Rattenmagen” value turned out to be 333.700 PP pro 1 g Rattenmagen.

With `[F-].[Na+]` [Natriumfluorid], in series [1], the “PP-Bildung in Meerschweinchenplacenten” value was “verstärkte, reproduzierbare Bildung und Abschnürung von Zellprotrusionen” and the “Auftreten von Plasmapolypen am Syncytiotrophoblasten der Placenta” value is given as “in großer Zahl”.

With `O=[N+]([O-])c1ccc(O)c([N+](=O)[O-])c1` [2.4-Dinitrophenol], the “PP-Bildung in Meerschweinchenplacenten” value in series [1] is reported as “keiner vermehrten PP-Bildung”.

Take `O=C(O)CI` [Monojodacetat]: in series [1], the “PP-Bildung in Meerschweinchenplacenten” value is on record as “verstärkte, reproduzierbare Bildung und Abschnürung von Zellprotrusionen” and the “Auftreten von Plasmapolypen am Syncytiotrophoblasten der Placenta” value is on record as “in großer Zahl”.

As to `CC(=O)Oc1ccccc1C(=O)O` [ASS, Acetylsalicylsäure], the “Anzahl der PP pro 1 g Rattenmagen” value with Magenschleimhaut (0,5 mmol ASS in 4,5 ml Aq.bidest, mean of 3 series of 5 rats) is recorded as 728.000 PP pro 1 g Rattenmagen; in the series with Magenschleimhaut (0,25 mmol ASS in 4,5 ml Aq.bidest, mean of 3 series of 5 rats), 610.700 PP pro 1 g Rattenmagen.

In the case of `CC(O)C(=O)O` (centres unmarked) [Na-Lactat], in the series on Magenschleimhaut (2,0 mmol Na-Lactat in 4,5 ml Aq.bidest, mean of 4 series of 5 rats), the “Anzahl der PP pro 1 g Rattenmagen” value turned out to be 344.000 PP pro 1 g Rattenmagen.
